In patent publication US10647711B2, “Azepin-2-one derivatives as RSV inhibitors” (Enanta Pharmaceuticals, Inc., priority 2017, dated 2020) one finds EC50 data, which are given here for 17 compounds.

pEC50: −log10 of the molar value.

In general, pEC50 refers to the negative decadic logarithm of the EC50, by convention in mol/L.

The subject of this assay is Human RSV-A (“Long” strain). Briefly: RSV-A in vitro cytoprotection assay in HEp-2 cells (ATPlite readout). The format is cell-based. Conditions: human respiratory syncytial virus, 96 h, 4-day incubation, ATPlite cell viability (CPE protection). From the text:
RSV is a single stranded negative sense RNA virus that causes respiratory tract infections which can be dangerous to infants, the elderly, and immunosuppressed individuals. Currently there is no vaccine, and therapeutic options are both costly and of limited effectiveness. These approved treatments are Ribavirin, and Palivizumab/Synagis (a monoclonal antibody). RSV has two genotypes, A and B, which differ primarily in the structure of the virus' surface “G” attachment protein. Our current primary screen focusses on RSV-A and uses an in vitro cytoprotection assay where compounds are added in 2-fold dilutions to cells which are then subjected to fully replicative viral particles. Cell viability is measured several days later along with separate measurements of compound cytotoxicity. This report focuses on the results of our most recent screening of compounds.
HEp-2 cells, (originally derived from tumors grown in irradiated-cortisonised weanling rats that had been injected with epidermoid carcinoma tissue from a person's larynx, but later found to be indistinguishable from HeLa cells by PCR DNA analysis), were used for the culturing of genotype A, “Long” strain RSV. Flasks were inoculated with RSV and viral stocks were collected once cytopathic effect (CPE) was greater than 90%. Viral stocks in 25% sucrose media were snap frozen using liquid nitrogen to increase viral stability. Viral stock titers were quantified by tissue culture infectious dose 50% (TCID50) using 8,000 cells per well and 3-fold viral dilutions across a 96-well plate, cultured for 4 days.
Following extensive parameter testing, the final assay is run as follows: HEp-2 cells are seeded into the inner 60 wells of a 96-well plate at 8,000 cells per well in a volume of 50 μL using Growth Media (DMEM without phenol red, 1% L-Glut, 1% Penn/Strep, 1% nonessential amino acids, 10% FBS). 2-fold serial dilutions of control and test compounds are added to the wells in duplicate in a total volume of 25 μL. Viral stock is then added to the wells in a volume of […] the total volume of each well to 100 μL. Each 96-well plate has a control column of 6 wells with cells and virus but no compound (negative control, max CPE), a column with cells but no compound or virus (positive control, minimum CPE), and a column with no cells or virus or compound (background plate/reagent control). The control wells with cells but no virus are given an additional 25 uL of growth media containing an equal quantity of sucrose as those wells receiving the viral stock in order to keep consistent in media and volume conditions. The outer wells of the plate are filled with 125 μL of growth media to act as a thermal and evaporative moat around the test wells. Following a 4-day incubation period, the plates are read using ATPlite (50 uL added per well), which quantifies the amount of ATP (a measure of cell health) present in each well. Assay plates are read using the Envision luminometer. […] EC50 ranges are as follows: A<1 μM; B 1-5 μM; C>5 μM.
(Cellular ATP, detected with luciferase, serves as a proxy for viable cell number.)
In the case of `O=C1Nc2ccccc2C(c2ccccc2)=C[C@@H]1Nc1nnc(-c2nc(-c3cccnc3)sc2N2CCOCC2)o1` [Example 13, (S)-3-((5-(5-morpholino-2-(pyridin-3-yl)thiazol-4-yl)-1,3,4-oxadiazol-2-yl)amino)-5-phenyl-1,3-dihydro-2H-benzo[b]azepin-2-one], the pEC50 was more than 6.00.
For `O=C1Nc2ccccc2C(c2ccccc2)=C[C@H]1Nc1nnc(-c2nc(C3CC3)sc2N2CCOCC2)o1` [Example 12, (R)-3-((5-(2-cyclopropyl-5-morpholinothiazol-4-yl)-1,3,4-oxadiazol-2-yl)amino)-5-phenyl-1,3-dihydro-2H-benzo[b]azepin-2-one] the value was more than 6.00.
Compound `O=C(Nc1ccccc1F)N[C@H]1C=C(c2ccccc2)c2ccccc2NC1=O` [Example 15, (S)-1-(2-fluorophenyl)-3-(2-oxo-5-phenyl-2,3-dihydro-1H-benzo[b]azepin-3-yl)urea] had a pEC50 of less than 5.30.
For `O=C1Nc2ccccc2C(c2ccccc2)=C[C@@H]1Nc1nnc(-c2cccnc2N2CCOCC2)o1` [Example 4] the value was 5.30 to 6.00; for `O=C1Nc2ccccc2C(c2ccccc2)=C[C@@H]1Nc1nnc(-c2ccc(F)cc2)o1` [Example 1, (S)-3-((5-(4-fluorophenyl)-1,3,4-oxadiazol-2-yl)amino)-5-phenyl-1,3-dihydro-2H-benzo[b]azepin-2-one], 5.30 to 6.00.
As for `O=C(N[C@H]1C=C(c2ccccc2)c2ccccc2NC1=O)c1ccccc1` [Example 17, (5)-N-(2-oxo-5-phenyl-2,3-dihydro-1H-benzo[b]azepin-3-yl)benzamide], the pEC50 was less than 5.30.
For the compound `O=C1Nc2ccccc2C(c2ccccc2)=C[C@H]1Nc1nnc(-c2nc(-c3cccnc3)sc2N2CCOCC2)o1` [Example 14, (R)-3-((5-(5-morpholino-2-(pyridin-3-yl)thiazol-4-yl)-1,3,4-oxadiazol-2-yl)amino)-5-phenyl-1,3-dihydro-2H-benzo[b]azepin-2-one], the pEC50 is 5.30 to 6.00.
The compound `O=C1Nc2ccccc2C(c2ccccc2)=C[C@@H]1Nc1nnc(-c2ncc(C(F)(F)F)cc2N2CCOCC2)o1` [Example 10] showed a pEC50 of more than 6.00.
The figure for `O=C1Nc2ccccc2C(c2ccccc2)=C[C@@H]1Nc1nnc(-c2ncc(C3CCC3)cc2N2CCOCC2)o1` [Example 9] is 5.30 to 6.00; for `O=C1Nc2ccccc2C(c2ccccc2)=C[C@@H]1Nc1nnc(-c2nc(C3CC3)sc2N2CCOCC2)o1` [Example 11, (S)-3-((5-(2-cyclopropyl-5-morpholinothiazol-4-yl)-1,3,4-oxadiazol-2-yl)amino)-5-phenyl-1,3-dihydro-2H-benzo[b]azepin-2-one] it is more than 6.00.
The figure for `O=C1Nc2ccccc2C(c2ccccc2)=C[C@@H]1Nc1nnc(-c2ncc(C3CC3)cc2N2CCOCC2)o1` [Example 5] is more than 6.00; for `O=C1Nc2ccccc2C(c2ccccc2)=C[C@@H]1Nc1nnc(-c2ccc(N3CCOCC3)cc2F)o1` [Example 3] it is 5.30 to 6.00.
The compound `N#Cc1cnc(-c2nnc(N[C@H]3C=C(c4ccccc4)c4ccccc4NC3=O)o2)c(N2CCOCC2)c1` [Example 8] gave a pEC50 of more than 6.00.
The figure for `O=C1Nc2ccccc2C(c2ccccc2)=C[C@@H]1Nc1nc2ccccc2o1` [Example 16, (S)-3-(benzo[d]oxazol-2-ylamino)-5-phenyl-1,3-dihydro-2H-benzo[b]azepin-2-one] is less than 5.30; for `C#Cc1cnc(-c2nnc(N[C@H]3C=C(c4ccccc4)c4ccccc4NC3=O)o2)c(N2CCOCC2)c1` [Example 6] it is more than 6.00.
For `O=C1Nc2ccccc2C(c2ccccc2)=C[C@@H]1Nc1nnc(-c2cn(-c3ccccn3)nc2N2CCOCC2)o1` [Example 2] the value was 5.30 to 6.00; for `O=C1Nc2ccccc2C(c2ccccc2)=C[C@@H]1Nc1nnc(-c2ncc(Br)cc2N2CCOCC2)o1` [Example 7], more than 6.00.
